Among the data in US8916702B2 (priority 2012, dated 2014) are EC50 values, retold here.

Usually EC50 stands for the midpoint of the concentration-response curve.

One experiment has as its system HCV pseudoparticles (genotype 1a HCV E1 and E2 envelope, H77C isolate). As to the kind of experiment: microbe, parasite or virus in culture. The format is cell-based. The settings on record: Hepatitis C virus, Huh-7, 48 h, HCV pseudoparticles, Huh7 cells, luciferase 2 days after infection; average of duplicates.
With `COC(=O)[C@H](CNC(=O)C(=O)Nc1ccc(N2CCOCC2)nc1)NC(=O)c1ccc(Nc2nc(NC3(c4ccc(Cl)cc4)CC3)nc(OCC(F)(F)F)n2)cc1` [Compound 3703], it took 1.33 nM to reach a half-maximal effect (EC50).
On the same count and under the same terms, next, `COC(=O)[C@H](CNC(=O)C(=O)Nc1cccc(-c2ncc[nH]2)c1)NC(=O)c1ccc(Nc2nc(NC3(c4ccc(Cl)cc4)CC3)nc(OCC(F)(F)F)n2)cc1` [Compound 3709]: 0.71 nM; `COC(=O)[C@H](CNC(=O)C(=O)Nc1ccc(C(F)(F)F)nc1)NC(=O)c1ccc(Nc2nc(NC3(c4ccc(Cl)cc4)CC3)nc(OCC(F)(F)F)n2)cc1` [Compound 3716]: 0.62 nM; `COC(=O)[C@H](CNC(=O)C(=O)Nc1cccc(CN2CCCC2)c1)NC(=O)c1ccc(Nc2nc(NC3(c4ccc(Cl)cc4)CC3)nc(OCC(F)(F)F)n2)cc1` [Compound 3723]: 1.34 nM.
Same read-out and setting: next, `COC(=O)[C@H](CNC(=O)C(=O)Nc1cccc(-c2noc(C)n2)c1)NC(=O)c1ccc(Nc2nc(NC3(c4ccc(Cl)cc4)CC3)nc(OCC(F)(F)F)n2)cc1` [Compound 3730]: 0.6 nM.
On the same count and under the same terms, next, `COC(=O)[C@H](CNC(=O)C(=O)Nc1cccc(Oc2cccnc2)c1)NC(=O)c1ccc(Nc2nc(NC3(c4ccc(Cl)cc4)CC3)nc(OCC(F)(F)F)n2)cc1` [Compound 3737]: 1.63 nM.

Staying with this experiment, now noted: Hepatitis C virus, Huh-7, 48 h, read-out: Activity (EC50 class), HCV pseudoparticles, Huh7 cells, luciferase 2 days after infection; average of duplicates.
In the case of `COC(=O)[C@H](CNC(=O)C(=O)Nc1ccc(Oc2cccnc2)nc1)NC(=O)c1ccc(Nc2nc(NC3(c4ccc(Cl)cc4)CC3)nc(OCC(F)(F)F)n2)cc1` [Compound 3699], the EC50 lay in the range of 0.01 to 10 nM.
In the case of `COC(=O)[C@H](CNC(=O)C(=O)Nc1cccc(-c2ccnc(C)n2)c1)NC(=O)c1ccc(Nc2nc(NC3(c4ccc(Cl)cc4)CC3)nc(OCC(F)(F)F)n2)cc1` [Compound 3700], the EC50 lay within 0.01 to 10 nM.
Same read-out and setting: in the case of `COC(=O)[C@H](CNC(=O)C(=O)Nc1cccc(S(=O)(=O)c2ccccc2)c1)NC(=O)c1ccc(Nc2nc(NC3(c4ccc(Cl)cc4)CC3)nc(OCC(F)(F)F)n2)cc1` [Compound 3701] it was 0.01 to 10 nM; in that of `COC(=O)[C@H](CNC(=O)C(=O)Nc1cccc(C(C)C)c1)NC(=O)c1ccc(Nc2nc(NC3(c4ccc(Cl)cc4)CC3)nc(OCC(F)(F)F)n2)cc1` [Compound 3702], 0.01 to 10 nM; in that of `COC(=O)[C@H](CNC(=O)C(=O)Nc1ccc(N2CCOCC2)nc1)NC(=O)c1ccc(Nc2nc(NC3(c4ccc(Cl)cc4)CC3)nc(OCC(F)(F)F)n2)cc1` [Compound 3703], 0.01 to 10 nM.
Regarding `COC(=O)[C@H](CNC(=O)C(=O)Nc1cccc(C(C)(C)C)c1)NC(=O)c1ccc(Nc2nc(NC3(c4ccc(Cl)cc4)CC3)nc(OCC(F)(F)F)n2)cc1` [Compound 3704], the half-maximal effective concentration (EC50) lay within 0.01 to 10 nM.
Same read-out and setting: in the case of `COC(=O)[C@H](CNC(=O)C(=O)Nc1ccc(N)nc1)NC(=O)c1ccc(Nc2nc(NC3(c4ccc(Cl)cc4)CC3)nc(OCC(F)(F)F)n2)cc1` [Compound 3705] it was 0.01 to 10 nM; in that of `COC(=O)[C@H](CNC(=O)C(=O)Nc1ccc(NC(C)=O)nc1)NC(=O)c1ccc(Nc2nc(NC3(c4ccc(Cl)cc4)CC3)nc(OCC(F)(F)F)n2)cc1` [Compound 3706], 0.01 to 10 nM.
Same read-out and setting: in the case of `COC(=O)[C@H](CNC(=O)C(=O)Nc1cccc(S(C)(=O)=O)c1)NC(=O)c1ccc(Nc2nc(NC3(c4ccc(Cl)cc4)CC3)nc(OCC(F)(F)F)n2)cc1` [Compound 3707] it was 0.01 to 10 nM; in that of `COC(=O)[C@H](CNC(=O)C(=O)Nc1cccc(OC(F)F)c1)NC(=O)c1ccc(Nc2nc(NC3(c4ccc(Cl)cc4)CC3)nc(OCC(F)(F)F)n2)cc1` [Compound 3708], 0.01 to 10 nM.
On to `COC(=O)[C@H](CNC(=O)C(=O)Nc1cccc(-c2ncc[nH]2)c1)NC(=O)c1ccc(Nc2nc(NC3(c4ccc(Cl)cc4)CC3)nc(OCC(F)(F)F)n2)cc1` [Compound 3709], for which the concentration for a half-maximal effect (EC50) lay within 0.01 to 10 nM.
Still for that read-out and setting: in the case of `COC(=O)[C@H](CNC(=O)C(=O)Nc1cccc(S(=O)(=O)C(F)(F)F)c1)NC(=O)c1ccc(Nc2nc(NC3(c4ccc(Cl)cc4)CC3)nc(OCC(F)(F)F)n2)cc1` [Compound 3710] it was 0.01 to 10 nM; in that of `COC(=O)[C@H](CNC(=O)C(=O)Nc1ccc(C)nc1)NC(=O)c1ccc(Nc2nc(NC3(c4ccc(Cl)cc4)CC3)nc(OCC(F)(F)F)n2)cc1` [Compound 3711], 0.01 to 10 nM.
The same measure, in the same setting: in the case of `COC(=O)[C@H](CNC(=O)C(=O)Nc1cccc(-c2ccncc2)c1)NC(=O)c1ccc(Nc2nc(NC3(c4ccc(Cl)cc4)CC3)nc(OCC(F)(F)F)n2)cc1` [Compound 3712] it was 0.01 to 10 nM; in that of `COC(=O)[C@H](CNC(=O)C(=O)Nc1cccc(CCc2ccccn2)c1)NC(=O)c1ccc(Nc2nc(NC3(c4ccc(Cl)cc4)CC3)nc(OCC(F)(F)F)n2)cc1` [Compound 3713], 0.01 to 10 nM; in that of `COC(=O)[C@H](CNC(=O)C(=O)Nc1cccc(Cc2ccccc2)c1)NC(=O)c1ccc(Nc2nc(NC3(c4ccc(Cl)cc4)CC3)nc(OCC(F)(F)F)n2)cc1` [Compound 3714], 0.01 to 10 nM.
The same measure, in the same setting: next, `COC(=O)[C@H](CNC(=O)C(=O)Nc1ccc(Oc2ccccc2)nc1)NC(=O)c1ccc(Nc2nc(NC3(c4ccc(Cl)cc4)CC3)nc(OCC(F)(F)F)n2)cc1` [Compound 3715]: 0.01 to 10 nM; `COC(=O)[C@H](CNC(=O)C(=O)Nc1ccc(C(F)(F)F)nc1)NC(=O)c1ccc(Nc2nc(NC3(c4ccc(Cl)cc4)CC3)nc(OCC(F)(F)F)n2)cc1` [Compound 3716]: 0.01 to 10 nM; `COC(=O)[C@H](CNC(=O)C(=O)Nc1cccc(S(=O)(=O)N2CCCCC2)c1)NC(=O)c1ccc(Nc2nc(NC3(c4ccc(Cl)cc4)CC3)nc(OCC(F)(F)F)n2)cc1` [Compound 3717]: 0.01 to 10 nM.
On to `COC(=O)[C@H](CNC(=O)C(=O)Nc1cccc(-c2csc(C)n2)c1)NC(=O)c1ccc(Nc2nc(NC3(c4ccc(Cl)cc4)CC3)nc(OCC(F)(F)F)n2)cc1` [Compound 3718], for which the half-maximal effective concentration (EC50) was 0.01 to 10 nM.
The same measure, in the same setting: next, `COC(=O)[C@H](CNC(=O)C(=O)Nc1cccc(-c2nncn2C)c1)NC(=O)c1ccc(Nc2nc(NC3(c4ccc(Cl)cc4)CC3)nc(OCC(F)(F)F)n2)cc1` [Compound 3719]: 0.01 to 10 nM; `COC(=O)[C@H](CNC(=O)C(=O)Nc1cccc(-c2ccc(Cl)cc2)c1)NC(=O)c1ccc(Nc2nc(NC3(c4ccc(Cl)cc4)CC3)nc(OCC(F)(F)F)n2)cc1` [Compound 3720]: 0.01 to 10 nM.
Same read-out and setting: next, `COC(=O)[C@H](CNC(=O)C(=O)Nc1ccc(N2CCCC2)nc1)NC(=O)c1ccc(Nc2nc(NC3(c4ccc(Cl)cc4)CC3)nc(OCC(F)(F)F)n2)cc1` [Compound 3721]: 0.01 to 10 nM.
On the same count and under the same terms, in the case of `COC(=O)[C@H](CNC(=O)C(=O)Nc1ccc(O)nc1)NC(=O)c1ccc(Nc2nc(NC3(c4ccc(Cl)cc4)CC3)nc(OCC(F)(F)F)n2)cc1` [Compound 3722] it was 0.01 to 10 nM.
As to `COC(=O)[C@H](CNC(=O)C(=O)Nc1cccc(CN2CCCC2)c1)NC(=O)c1ccc(Nc2nc(NC3(c4ccc(Cl)cc4)CC3)nc(OCC(F)(F)F)n2)cc1` [Compound 3723], the concentration for a half-maximal effect (EC50) lay within 0.01 to 10 nM.
Same read-out and setting: in the case of `COC(=O)[C@H](CNC(=O)C(=O)Nc1cccc(-c2nc(C)cs2)c1)NC(=O)c1ccc(Nc2nc(NC3(c4ccc(Cl)cc4)CC3)nc(OCC(F)(F)F)n2)cc1` [Compound 3725] it was 0.01 to 10 nM; in that of `COC(=O)[C@H](CNC(=O)C(=O)Nc1cccc(Oc2ccccn2)c1)NC(=O)c1ccc(Nc2nc(NC3(c4ccc(Cl)cc4)CC3)nc(OCC(F)(F)F)n2)cc1` [Compound 3726], 0.01 to 10 nM; in that of `CNS(=O)(=O)c1cccc(NC(=O)C(=O)NC[C@H](NC(=O)c2ccc(Nc3nc(NC4(c5ccc(Cl)cc5)CC4)nc(OCC(F)(F)F)n3)cc2)C(=O)OC)c1` [Compound 3727], 0.01 to 10 nM.
Turning to `COC(=O)[C@H](CNC(=O)C(=O)Nc1cccc(-c2cccnc2)c1)NC(=O)c1ccc(Nc2nc(NC3(c4ccc(Cl)cc4)CC3)nc(OCC(F)(F)F)n2)cc1` [Compound 3728], the EC50 lay within 0.01 to 10 nM.
Still for that read-out and setting: next, `COC(=O)[C@H](CNC(=O)C(=O)Nc1cccc(-n2cnnc2)c1)NC(=O)c1ccc(Nc2nc(NC3(c4ccc(Cl)cc4)CC3)nc(OCC(F)(F)F)n2)cc1` [Compound 3729]: 0.01 to 10 nM; `COC(=O)[C@H](CNC(=O)C(=O)Nc1cccc(-c2noc(C)n2)c1)NC(=O)c1ccc(Nc2nc(NC3(c4ccc(Cl)cc4)CC3)nc(OCC(F)(F)F)n2)cc1` [Compound 3730]: 0.01 to 10 nM; `COC(=O)[C@H](CNC(=O)C(=O)Nc1cccc(-c2nnnn2C)c1)NC(=O)c1ccc(Nc2nc(NC3(c4ccc(Cl)cc4)CC3)nc(OCC(F)(F)F)n2)cc1` [Compound 3731]: 0.01 to 10 nM.
For the compound `COC(=O)[C@H](CNC(=O)C(=O)Nc1cccc(-c2c[nH]cn2)c1)NC(=O)c1ccc(Nc2nc(NC3(c4ccc(Cl)cc4)CC3)nc(OCC(F)(F)F)n2)cc1` [Compound 3732], the EC50 was in the range of 0.01 to 10 nM.
The same measure, in the same setting: in the case of `CCN(CC)CCOc1cccc(NC(=O)C(=O)NC[C@H](NC(=O)c2ccc(Nc3nc(NC4(c5ccc(Cl)cc5)CC4)nc(OCC(F)(F)F)n3)cc2)C(=O)OC)c1` [Compound 3733] it was 0.01 to 10 nM; in that of `COC(=O)[C@H](CNC(=O)C(=O)Nc1cccc(-n2ccnc2)c1)NC(=O)c1ccc(Nc2nc(NC3(c4ccc(Cl)cc4)CC3)nc(OCC(F)(F)F)n2)cc1` [Compound 3734], 0.01 to 10 nM; in that of `COC(=O)[C@H](CNC(=O)C(=O)Nc1ccc(OCCN(C)C)nc1)NC(=O)c1ccc(Nc2nc(NC3(c4ccc(Cl)cc4)CC3)nc(OCC(F)(F)F)n2)cc1` [Compound 3735], 0.01 to 10 nM.
Take `COC(=O)[C@H](CNC(=O)C(=O)Nc1ccc(OCCN2CCCCC2)nc1)NC(=O)c1ccc(Nc2nc(NC3(c4ccc(Cl)cc4)CC3)nc(OCC(F)(F)F)n2)cc1` [Compound 3736]: the EC50 is 0.01 to 10 nM.
Still for that read-out and setting: in the case of `COC(=O)[C@H](CNC(=O)C(=O)Nc1cccc(Oc2cccnc2)c1)NC(=O)c1ccc(Nc2nc(NC3(c4ccc(Cl)cc4)CC3)nc(OCC(F)(F)F)n2)cc1` [Compound 3737] it was 0.01 to 10 nM.
Regarding `COC(=O)[C@H](CNC(=O)C(=O)Nc1cccc(CCC(N)=O)c1)NC(=O)c1ccc(Nc2nc(NC3(c4ccc(Cl)cc4)CC3)nc(OCC(F)(F)F)n2)cc1` [Compound 3738], the EC50 fell in the range of 0.01 to 10 nM.
Same read-out and setting: in the case of `O=C(NC[C@H](NC(=O)c1ccc(Nc2nc(NC3(c4ccc(Cl)cc4)CC3)nc(OCC(F)(F)F)n2)cc1)C(=O)Cl)C(=O)Nc1ccc(Cl)nc1` [Compound 3739] it was 0.01 to 10 nM; in that of `N#Cc1cccc(NC(=O)C(=O)NC[C@H](NC(=O)c2ccc(Nc3nc(NC4(c5ccc(Cl)cc5)CC4)nc(OCC(F)(F)F)n3)cc2)C(=O)Cl)c1` [Compound 3740], 0.01 to 10 nM; in that of `O=C(NC[C@H](NC(=O)c1ccc(Nc2nc(NC3(c4ccc(Cl)cc4)CC3)nc(OCC(F)(F)F)n2)cc1)C(=O)Cl)C(=O)Nc1cccc(Cl)c1` [Compound 3741], 0.01 to 10 nM.
Still for that read-out and setting: next, `O=C(NC[C@H](NC(=O)c1ccc(Nc2nc(NC3(c4ccc(Cl)cc4)CC3)nc(OCC(F)(F)F)n2)cc1)C(=O)Cl)C(=O)Nc1cccc(OCc2ccccc2)c1` [Compound 3742]: 0.01 to 10 nM; `Cc1cccc(NC(=O)C(=O)NC[C@H](NC(=O)c2ccc(Nc3nc(NC4(c5ccc(Cl)cc5)CC4)nc(OCC(F)(F)F)n3)cc2)C(=O)Cl)c1` [Compound 3743]: 0.01 to 10 nM.
